Data on two substances can be found in patent US20260014085A1, “MILK DERIVED EXOSOMES AND USES THEREOF” (VIRGINIA TECH INTELLECTUAL PROPERTIES, INC., priority 2022, published 2026).

The subject of assay [1] is B5 Clone (High Cx43) MDCK cells. Put plainly: Scratch wound closure (migration index), B5 Clone (High Cx43) MDCK. Type of assay: cell-based, canine. Particulars: B5 Clone MDCKs, 100 uM Apyrase. The procedure: FIG. 7A-7L—Milk-Derived Extracellular Vesicles contain endogenous bioactive capabilities in a Scratch-Wounded model of wound healing in Cx43-variable MDCK cells. Cells are cultured to confluency, then scratched in low serum conditions (1% NCS), rinsed, and supplied fresh medium with 20 μg/mL mEV's or 20 uL Vehicle (HEPES buffer). (FIG. 7A) Quantification of wound closure using ImageJ border zone analysis plugin software. Scratches are scanned and imaged at t=0 and scratch size is quantified, then after 8 hours, cells are stopped, fixed and imaged again, then final scratch size is quantified. Migration index is calculated by subtracting the final area from the starting and dividing by the average of vehicle control samples, giving a value of 1.0 for vehicle control. mEV's contain endogenous bioactivity that is Cx43 Dependent, with over 8× healing potential when cells contain enhanced Cx43 levels. […] (FIG. 7G) Quantification of wound closure using ImageJ border zone analysis plugin software. Scratches are scanned and imaged at t=0 and scratch size is quantified, then after 8 hours, cells are stopped, fixed and imaged again, then final scratch size is quantified. […]

For assay [2] the test system is unchanged. Put plainly: mEV uptake in scratch wound model, B5 Clone (High Cx43) MDCK. The format is cell-based, canine. On the procedure:
Cells are cultured to confluency, then scratched in low serum conditions (1% NCS), rinsed, and supplied fresh medium with 20 μg/mL CTDR-Tagged mEV's. […] (FIG. 4B) Unwounded Parent (Low Cx43) MDCKs; (FIG. 4C) Wounded Parent (Low Cx43) MDCKs; (FIG. 4D) Unwounded B5 Clone (High Cx43) MDCKs; (FIG. 4E) Wounded B5 Clone (High Cx43) MDCKs. […] (FIG. 4G) Wounded B5 Clone (High Cx43) MDCKs provided mEV's; (FIG. 4H) Wounded B5 Clone (High Cx43) MDCKs provided mEV's and Gap27, a Connexin inhibitor.
FIG. 5A-5C—Milk-Derived Extracellular Vesicle targeting capabilities to high Cx43 expressing B5 Clone MDCKS are completely eliminated via use of exogenous Apyrase. Cells are cultured to confluency, then scratched in low serum conditions (1% NCS), rinsed, and supplied fresh medium with 20 μg/mL CTDR-Tagged mEV's with or without 100 uM Apyrase. (FIG. 5A) Wounded B5 Clone (High Cx43) given CTDR-Tagged mEV's; (FIG. 5B) Wounded B5 Clone (High Cx43) given CTDR tagged mEV's with 100 µM Apyrase.
The associated bar graph for particle count analysis is shown above in FIG. 4A. […] This insinuates that mEV uptake by cells is mediated by Cx43 in both unwounded and wounded situations, with unwounded B5 clone cells experiencing similar uptake levels to that of wounded Parent Lampe cells (FIG. 4A). Applicant then tested for the mechanism of uptake in these cells—B5 clone cells were scratch wounded and given fluorescently tagged mEV's, then some were also provided with Gap27 (FIG. 4F), a known Connexin channel blocker. When co-incubated with Gap27 (D2), mEV uptake was blocked by over 25% (FIG. 4F) when compared to those untreated. […] Another mechanism of uptake of mEV's in a wounded environment that Applicant has discovered is ATP (FIG. 5A-5C).
Small extracellular vesicles known as exosomes (nanovesicles of less than or equal to 150 nm diameter) are secreted by nearly all cell types and are thought to have key assignments in intercellular signaling. Reports that exosomes evade immune detection, show propensity to cross tissue boundaries (e.g., the blood-brain barrier) and can be orally administered has also attracted increasing interest in therapeutic applications, including as drug delivery devices. Applicant recently developed a method for large-scale purification of bovine milk-derived extracellular vesicles (Marsh et al., Nanotheranostics. 2021 Jul. 5; 5(4):488-498. doi: 10.7150/ntno.62213. eCollection 2021). […] Girao and co-workers determined that Connexin 43 (Cx43) is present in exosomes derived from cultured cells expressing Cx43, where this gap junction protein has assignments in cellular uptake of exosomal cargo (Soares et al., Sci Rep. 2015 Aug. 19; 5:13243. doi: 10.1038/srep13243). […]

Where only a bound is given, the exact number is not on record here.

For Apyrase, in assay [1], the “mEV wound healing capabilities with exogenous Apyrase” value was “heavily reduced”. In assay [2] (wounded B5 Clone (High Cx43) MDCKs, 100 uM Apyrase), the “mEV expression with added apyrase” value was “significant and complete elimination”. The “reduction in mEV uptake with apyrase” value in assay [2] (wounded B5 Clone cells, co-incubated with 100 uM apyrase) is given as more than 95%.
As to “Gap27: a known Connexin channel blocker (TEKTIFIIFML; UniProt P17302 204-214, looked up, fragment)”, in assay [2] (scratch wounded B5 clone cells, compared to untreated), the “mEV uptake blocked when co-incubated with Gap27” value is reported as “over 25%”. For the same substance, the “mEV expression with added Gap27” value in assay [2] (wounded B5 Clone (High Cx43) MDCKs) was “statistical drop”.
